From paper PMC6488552, “Pharmacokinetic and Pharmacodynamic Properties of a Micro-Dose Nasal Spray Formulation of Desmopressin (AV002) in Healthy Water-Loaded Subjects” (Pharmaceutical Research, 2019)

Key:
clinical = conditions: human, in vivo
Procedure: Each subject was dosed 4 times over 1 week with dosing occurring every other day. Doses of AV002 were administered at 0.5, 1.0, and 2.0 μg intranasally.
On Days 1, 3 and 5, subjects were dosed intranasally with escalating doses of AV002 nasal spray. On Day 7, 6 subjects were given a single SC bolus injection of desmopressin. Pharmacodynamic and pharmacokinetic metrics were evaluated at each dose level.
Plasma samples were analyzed using a validated radioimmunoassay assay (Celerion Switzerland AG) for desmopressin with a lower limit of quantification (LLOQ) of 2.5 pg/mL and upper limit of quantitation of 160 pg/mL. A 1.25 pg/mL calibration standard was included in the assay runs and concentrations between 1.25 and 2.5 pg/mL were reported out even though they were below the nominal LLOQ.
Pharmacokinetic variables were generally analyzed using model-independent methods. A single compartment model with first order absorption was used to qualitatively assess the impact of probable pharmacokinetic behavior of desmopressin when concentrations declined below the assay lower limit of quantification.
Pharmacokinetic calculations were performed using built in functions in the Excel 2003 component of Microsoft Office 2003 (Microsoft, Redmond, WA). The correctness of the calculation techniques was confirmed by comparison to output from WinNonlin 4.0.1 (Pharsight Corporation, Sunnyvale, CA). Summary statistics, graphs and figures were generated using built in functions and features of Excel 2003.
Pharmacokinetic samples were collected at pre-dose and 0.083, 0.167, 0.25, 0.50, 0.75, 1.05, 1.50, 2.05, 3.05, 4.05, and 6.05 h post dose each dosing day.

[1] = in vivo, cited from earlier work

half-life (clinical): 90 min | mean Tmax (clinical; sc): 53 min | CL/F (clinical; sc, 0.12 ug): 227 mL/min | AUC(0-inf) (clinical; sc, 0.12 ug, SD): 0.0102 ± 0.0049 ng·h/mL | Tmax (clinical; sc, 0.12 ug, SD): 53 ± 20.9 min
SMILES: NC(=O)CC[C@@H]1NC(=O)[C@H](Cc2ccccc2)NC(=O)[C@H](Cc2ccc(O)cc2)NC(=O)CCSSC[C@@H](C(=O)N2CCC[C@H]2C(=O)N[C@H](CCCN=C(N)N)C(=O)NCC(N)=O)NC(=O)[C@H](CC(N)=O)NC1=O [Desmopressin, desmopressin]
intranasal bioavailability ([1]; human): 3.4% | relative bioavailability of intranasal administration, of SC injection [1]: approximately 2%
